The term half-life denotes how long it takes for the measured level to halve. Broadly, the EC50 is the concentration that produces a half-maximal response.

We go through 7 compounds from US7414107B2, “Pharmacologically active peptide conjugates having a reduced tendency towards enzymatic hydrolysis” (priority 1998, dated 2008).

One data set deals with T1, leucine aminopeptidase (Sus scrofa, UniProt P28839).
T1 construct: purchased Sigma, UK type III-CP (catalogue number not given); host or cells: porcine kidney
T1 sequence (P28839 1-519): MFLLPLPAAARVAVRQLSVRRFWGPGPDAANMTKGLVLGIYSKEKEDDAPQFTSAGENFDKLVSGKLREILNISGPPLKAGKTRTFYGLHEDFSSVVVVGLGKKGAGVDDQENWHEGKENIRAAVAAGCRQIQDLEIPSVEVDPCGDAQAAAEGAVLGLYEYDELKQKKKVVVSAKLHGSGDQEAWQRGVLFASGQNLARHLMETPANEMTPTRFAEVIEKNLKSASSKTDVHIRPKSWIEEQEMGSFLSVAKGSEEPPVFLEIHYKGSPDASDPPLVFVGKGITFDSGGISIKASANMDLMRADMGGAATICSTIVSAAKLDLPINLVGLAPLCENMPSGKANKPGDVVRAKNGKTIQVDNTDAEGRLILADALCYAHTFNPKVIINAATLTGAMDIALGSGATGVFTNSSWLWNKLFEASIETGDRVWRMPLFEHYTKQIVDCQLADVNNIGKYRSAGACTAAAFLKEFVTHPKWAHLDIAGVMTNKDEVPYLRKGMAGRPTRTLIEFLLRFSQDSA
As to the kind of experiment: Hydrolysis kinetics in leucine aminopeptidase solution. It counts as in vitro ADME, porcine. The settings on record: 50 mM phosphate buffer pH 7.4, 37° C., leucine aminopeptidase 25 U/ml; for half-life: pig. The procedure, abridged: (§1)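 Peptide conjugate or native peptide at ~0.1 mg/ml final (10^−5-10^−4M) incubated at 37° C in 50 mM phosphate pH 7.4 with leucine aminopeptidase (25 U/ml) or carboxypeptidase A (1 or 25 U/ml). Timed samples quenched with TFA/acetonitrile and quantified by RP-HPLC at 215 nm. t1/2 = ln2/kobs from first-order log plots.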

In a further data set the target is T2, carboxypeptidase A (Bos taurus, UniProt P00730).
T2 construct: purchased Sigma, UK type I (catalogue number not given); host or cells: bovine pancreas
T2 sequence (P00730 111-419): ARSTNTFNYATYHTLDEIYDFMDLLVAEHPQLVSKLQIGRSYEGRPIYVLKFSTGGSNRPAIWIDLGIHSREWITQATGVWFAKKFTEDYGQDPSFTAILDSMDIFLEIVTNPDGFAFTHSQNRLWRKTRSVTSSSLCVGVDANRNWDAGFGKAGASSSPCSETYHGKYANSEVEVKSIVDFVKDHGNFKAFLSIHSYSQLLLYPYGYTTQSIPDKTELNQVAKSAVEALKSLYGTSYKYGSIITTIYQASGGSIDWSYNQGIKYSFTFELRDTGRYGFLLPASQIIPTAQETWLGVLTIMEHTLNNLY
The experiment in a line: Hydrolysis kinetics in carboxypeptidase A solution. Format: in vitro ADME, bovine. The settings on record: 50 mM phosphate buffer pH 7.4, 37° C., carboxypeptidase A 1 U/ml. The procedure, abridged:
as §1

The next data set has as its system vas deferens. Particulars: read-out: EC50 value; half maximal inhibition of electrically-induced contraction, mouse vas deferens. The method, then:
(§2) In short: vasa deferentia were isolated from male mice weighing 20-30 g (Mellegaard breeding, DK) and suspended through two electrodes in 10 ml baths at resting tension of 1 g. […] The tissues were stimulated electrically (70 V, 1 ms duration; 0.1 Hz) and contractions were recorded isometrically on a chart recorder. After equilibration of the tissue for at least 20 min, drugs were added in the bath and the maximum effects were measured.
(§3) Prior to addition of the plasma sample, a standard dose-response curve was generated in each preparation in order to express the inhibitory activity as concentration of each test substance. Thus, the calculated concentration is a reflection of inhibitory activity in the vas deferens bioassay preparation.
(§4) Where initial=initial […] contraction force prior to addition of test substance; conc=concentration of test substance; EC50=concentration of test substance that […] produced half maximal inhibition of electrically-induced contraction; background=contraction force during maximal relaxation.

Data set [1] in a line: Stability in mouse plasma at 37° C. (vas deferens bioassay readout).
Description: as §3, §4
All enkephalin analogues were dissolved in Krebs buffer in a concentration of 1 mM. Sixty-six μl of each test substance solution (66 nmol enkephalin analog) was incubated with 600 μl plasma at 37° C. […] Functional activity of each test substance in plasma was expressed as the concentration of the test substance that elicited the same inhibition of electrically-induced contraction in the vas deferens bioassay. T1/2 was calculated by fitting the time-concentration data to the equation: conc(t)=conc(0)·e^(−ln2/T1/2)·t where conc(0)=concentration at t=0.

Another data set has as its system osteoblast. The experiment in a line: Osteoblast retraction assay. It counts as cell-based, mice. The method, then: Retraction assays were performed with osteoblast prepared from calvaria of 1-day old mice according to published protocols (Miller et al., 1976, Science 192:1340-1343). In brief, osteoblasts were seeded in serum-free minimal essential medium-α (αMEM) at a density of 3000 cells per cm^2 into 96-well tissue culture plates coated with 50 μg/ml of type I collagen in phosphate-buffered saline containing 0.1% bovine serum albumin (PBS). One day after plating, PTH compounds were added to a final concentration of 10 nM and incubation was carried out for 1 h. Cells were then fixed and stained with toluidine blue, and the number of retracted cells was counted by visual inspection.

Another data set has as its system PTH (1-34)-antibody. The settings on record: EIAS(h)-6101 from Peninsula Laboratories; cited from earlier work.
The nature of data set [2]: Bioavailability in mice: functional activity in serum after p.o. or i.v. dosing (vas deferens bioassay). The protocol:
Blood samples were centrifuged immediately (3000 g, 4° C.) and serum was isolated and used for activity determination.
as §2

The subject of another data set is guinea pig illeum. Particulars: agonist, induced contraction, illeum not electrically stimulated.

Where a SMILES comes first, the peptide text is derived from it. Where no end group is shown, it is not given here. [ ]: non-standard residue; d: D form. Dap = NC[C@H](N)C(=O)O

Description for guinea pig illeum: Following application of the compounds the induced contraction was measured.

Take `CC(C)C[C@H](NC(=O)[C@H](Cc1ccccc1)NC(=O)CNC(=O)CNC(=O)[C@@H](N)Cc1ccc(O)cc1)C(=O)N[C@@H](CN)C(=O)N[C@@H](CN)C(=O)N[C@@H](CN)C(=O)N[C@@H](CN)C(=O)N[C@@H](CN)C(=O)N[C@@H](CN)C(=O)O` [Leu-Enkephalin-(Dpr)6-OH, H-Tyr-Gly-Gly-Phe-Leu-(Dpr)6-OH] (H-YGGFL[Dap][Dap][Dap][Dap][Dap][Dap]-OH): on leucine aminopeptidase, the “pseudo first-order rate constant for the degradation” value (“pseudo first-order rate constant” for short) was found to be 0.17 min⁻¹ and the half-life worked out at 4.2 min. For the same compound, on carboxypeptidase A, the half-life came out at 29 min and the “pseudo first-order rate constant” value was 0.024 min⁻¹. Besides, the concentration giving a half-maximal response (EC50) with vas deferens was 200 nM. In addition, in data set [1] (plasma), the half-life at 99 µM turned out to be 19.8 min.
With `CC[C@H](C)[C@H](NC(=O)[C@H](CCC(=O)O)NC(=O)[C@H](CO)NC(=O)[C@@H](NC(=O)[C@@H](N)CO)C(C)C)C(=O)N[C@@H](CCC(N)=O)C(=O)N[C@@H](CC(C)C)C(=O)N[C@@H](CCSC)C(=O)N[C@@H](Cc1c[nH]cn1)C(=O)N[C@@H](CC(N)=O)C(=O)N[C@@H](CC(C)C)C(=O)NCC(=O)N[C@@H](CCCCN)C(=O)N[C@@H](Cc1c[nH]cn1)C(=O)N[C@@H](CC(C)C)C(=O)N[C@@H](CC(N)=O)C(=O)N[C@@H](CO)C(=O)N[C@@H](CCSC)C(=O)N[C@@H](CCC(=O)O)C(=O)N[C@@H](CCCNC(=N)N)C(=O)N[C@H](C(=O)N[C@@H](CCC(=O)O)C(=O)N[C@@H](Cc1c[nH]c2ccccc12)C(=O)N[C@@H](CC(C)C)C(=O)N[C@@H](CCCNC(=N)N)C(=O)N[C@@H](CCCCN)C(=O)N[C@@H](CCCCN)C(=O)N[C@@H](CC(C)C)C(=O)N[C@@H](CCC(N)=O)C(=O)N[C@@H](CC(=O)O)C(=O)N[C@H](C(=O)N[C@@H](Cc1c[nH]cn1)C(=O)N[C@@H](CC(N)=O)C(=O)N[C@@H](Cc1ccccc1)C(=O)O)C(C)C)C(C)C` [PTH(1-34)(Human)-OH, H-Ser-Val-Ser-Glu-Ile-Gln-Leu-Met-His-Asn-Leu-Gly-Lys -His-Leu-Asn-Ser-Met-Glu-Arg-Val-Glu-Trp-Leu-Arg-Lys-Lys-Leu-Gln-Asp-Val-His -Asn-Phe-OH, reference compound], on leucine aminopeptidase, the “pseudo first-order rate constant” value is 0.0021 min⁻¹ and the half-life is 330 min. For the same compound, on carboxypeptidase A, the half-life was determined as 0.13 min and the “pseudo first-order rate constant” value turned out to be 5.2 min⁻¹. Moreover, in the data set on osteoblast (10 nM, 1 h, mouse calvaria osteoblasts), the “Retraction assay % Retracted cells” value was 58.2%. The “activity relative to native, human parathyroid hormone” value in the data set on osteoblast (Osteoblast retraction assay) is “approximately 89%”. The “Specificity of the assay” value in the data set on PTH (1-34)-antibody is recorded as 100%.
On to “H-YGGFLKEEEEK-OH [Leu-Enkephalin-(Lys-Glu4-Lys)-OH, H-Tyr-Gly-Gly-Phe-Leu-Lys-Glu-Glu-Glu-Glu-Lys--OH]”, for which, at leucine aminopeptidase, the “pseudo first-order rate constant” value amounted to 0.065 min⁻¹ and the half-life turned out to be 11 min. Also, on carboxypeptidase A, the half-life worked out at 1160 min and the “pseudo first-order rate constant” value worked out at 0.0006 min⁻¹. Also, the EC50 with vas deferens stood at 357 nM. The half-life at 99 µM in data set [1] (mouse plasma) worked out at 84.5 min.
“YGGFLKKKKKK [Leu-Enkephalin-(Lys)6-OH, H-Tyr-Gly-Gly-Phe-Leu-Lys6-OH]”: the “pseudo first-order rate constant” value on leucine aminopeptidase was 0.0097 min⁻¹; on carboxypeptidase A, 0.0007 min⁻¹. Moreover, the half-life on leucine aminopeptidase was determined as 72 min; at carboxypeptidase A (cattle, carboxypeptidase A solution (1 U/ml) in phosphate buffer), 990 min. For the same compound, the “Functional activity in serum” value in [2] (50 mg/kg i.v., 5 min) came out at 15.9 ± 2.4 µM; in data set [2] (50 mg/kg i.v., 15 min) it was 8.5 ± 1.2 µM; in data set [2] (50 mg/kg i.v., 30 min) it was 6 ± 0.95 µM; in [2] (50 mg/kg i.v., 60 min), 1.6 ± 0.34 µM; in data set [2] (50 mg/kg i.v., 180 min) it was 0.44 ± 0.11 µM; in data set [2] (50 mg/kg i.v., 240 min), 2.5 ± 0.32 µM. For the same compound, the “Functional activity in serum” value in data set [2] (50 mg/kg i.v., 370 min) is 31.2 ± 8.62 µM; in [2] (50 mg/kg i.v., 720 min), “<Detection Limit”; in data set [2] (50 mg/kg i.v., 1080 min) it was “<Detection Limit”; in [2] (50 mg/kg i.v., 1440 min) it was “<Detection Limit”; in data set [2] (50 mg/kg p.o., 0 min), 0 µM; in [2] (50 mg/kg p.o., 15 min) it was “<Detection Limit”. Moreover, the “Functional activity in serum” value is 3 ± 0.8 µM in [2] (50 mg/kg p.o., 30 min); 6 ± 1.3 µM in data set [2] (50 mg/kg p.o., 60 min); 10.9 ± 3.8 µM in [2] (50 mg/kg p.o., 90 min); 10.7 ± 0.23 µM in data set [2] (50 mg/kg p.o., 240 min); 5 ± 0.58 µM in [2] (50 mg/kg p.o., 480 min); 2.8 ± 0.78 µM in data set [2] (50 mg/kg p.o., 960 min). The “Functional activity in serum” value in [2] (50 mg/kg p.o., 1380 min) was “<Detection Limit”. Further, the “time at which activity in serum reached a maximum” value in data set [2] (50 mg/kg p.o.) is 90 to 240 min. Moreover, in the data set on vas deferens, the EC50 was determined as 160 nM. The half-life at 99 µM in [1] (plasma) was 18.7 min.
With `CSCC[C@H](NC(=O)[C@H](CC(C)C)NC(=O)CNC(=O)[C@H](Cc1ccccc1)NC(=O)[C@H](Cc1ccccc1)NC(=O)[C@H](CCC(N)=O)NC(=O)[C@H](CCC(N)=O)NC(=O)[C@@H]1CCCN1C(=O)[C@H](CCCCN)NC(=O)[C@@H]1CCCN1C(=O)[C@@H](N)CCCNC(=N)N)C(N)=O` [Substance P-NH2, H-Arg-Pro-Lys-Pro-Gln-Gln-Phe-Phe-Gly-Leu-Met-NH2, reference compound], the figures for the “pseudo first-order rate constant” value at leucine aminopeptidase and at carboxypeptidase A were 0.045 min⁻¹ and 0.02 min⁻¹, respectively. The half-life stood at 16 min at leucine aminopeptidase and 35 min at carboxypeptidase A. This compound also registered an EC50 in the data set with guinea pig illeum of 40 nM.
In the case of “H-KKKKKKRPKPQQFFGLM-NH2 [(Lys)6-Substance P-NH2, H-(Lys)6 Arg-Pro-Lys-Pro-Gln-Gln-Phe-Phe-Gly-Leu -Met-NH2]”, at leucine aminopeptidase, the “pseudo first-order rate constant” value was found to be 0.002 min⁻¹ and the half-life is 347 min. This compound came in with an EC50 with guinea pig illeum of 5 nM.
In the case of “YGGFLEEEEEE [Leu-Enkephalin-(Glu)6-OH, H-Tyr-Gly-Gly-Phe-Leu-Glu6-OH]”, the concentration for a half-maximal effect (EC50) with vas deferens was 140 nM. Further, the solubility result in “Solubility (remark)” was “very low solubility”.
